Measurements taken from patent US10047105B2, “Gyrase inhibitors” (Merck Sharp & Dohme Corp., priority 2009, dated 2018).

How the values were obtained:
[1] = test system: S. aureus ATCC 13709; assay: MIC, antibacterial potency, S. aureus; format: cell-based; conditions: S. aureus (SA); in µg/mL
[2] = test system: S. pneumoniae ATCC 51916; assay: MIC, S. pneumoniae; format: cell-based; conditions: S. pneumoniae (Spn52); in µg/mL

Row | SMILES | MIC, SA [1] | MIC Spn52 [2]
1 | CCc1[nH]c2nc(Sc3cnc4nccnc4c3)nc(N3C[C@@H]4[C@H](C3)[C@H]4N(Cc3ccccc3)Cc3ccccc3)c2c1Cl [700,822] | >64 | >64
2 | CCc1[nH]c2nc(Sc3cnc4cccnc4c3)nc(N3C[C@@H]4[C@H](C3)[C@H]4N(Cc3ccccc3)Cc3ccccc3)c2c1Cl [700,823] | 64 | 64
3 | CCc1[nH]c2nc(Sc3cncc(C#N)c3)nc(N3CC[C@@H](N)C3)c2c1Cl [700,824] | 2 | 8
4 | CCc1[nH]c2nc(Sc3ccc4c(N5CC[C@@H](N)C5)cc(C(=O)O)nc4c3)nc(N3CC[C@@H](N)C3)c2c1Cl [700,825] | 64 | >64
5 | CCc1[nH]c2nc(Sc3cnc4c(N)nc(CN5CCNCC5)nc4c3)nc(N3CC[C@@H](N)C3)c2c1Cl [700,826] | 8 | 32
6 | CCc1[nH]c2nc(Sc3cnc4c(N)nc(CN5CCC(N)CC5)nc4c3)nc(N3CC[C@@H](N)C3)c2c1Cl [700,827] | 4 | 32
7 | CCc1[nH]c2nc(Oc3cncc(C#N)c3)nc(Oc3cccc(C(=O)O)c3)c2c1Cl [700,828] | >64 | >64
8 | CCc1[nH]c2nc(Sc3cnc4nccnc4c3)nc(N3CCC(CN)CC3)c2c1Cl [700,829] | 16 | 32
9 | CCc1[nH]c2nc(Sc3cnc4nccnc4c3)nc(N3CCC(CO)C3)c2c1Cl (stereo not shown) [700,830] | <=0.5 | 2
10 | C=Cc1nc(Oc2cccc(C#N)c2)nc2[nH]c(CC)c(Cl)c12 [700,831] | 2 | 4
11 | C=CCc1nc(Oc2ccc(Cl)c(C#N)c2)nc2[nH]c(CC)c(Cl)c12 [700,832] | 4 | >8
12 | CCc1[nH]c2nc(Sc3cnc4nccnc4c3)nc(Oc3cccc(C#N)c3)c2c1Cl [700,833] | <=0.5 | 2
13 | CCc1[nH]c2nc(Sc3cnc4nccnc4c3)nc(Oc3ccc(OC)c(C#N)c3)c2c1Cl [700,834] | 1 | 8
14 | CCc1[nH]c2nc(Sc3ccc4cc5c(nc4c3)CCNC5)nc(N3CC[C@@H](N)C3)c2c1Cl [700,841] | 4 | 8
15 | CCc1[nH]c2nc(Sc3cnc4nccnc4c3)nc(N3CC(NC(=O)C4CNC4)C3)c2c1Cl [700,842] | 4 | >64
16 | CCc1[nH]c2nc(Sc3ccc4c(N5CC[C@@H](N)C5)cc(C)nc4c3)nc(N3CC[C@@H](N)C3)c2c1Cl [700,843] | 64 | >64
17 | CCc1[nH]c2nc(Sc3ccc4nnc(C(=O)NCCN5CCCC5)nc4c3)nc(N3CC[C@@H](N)C3)c2c1Cl [700,844] | 64 | 32
18 | CCc1[nH]c2nc(Sc3ccc4nnc(C(=O)NCC5CCNCC5)nc4c3)nc(N3CC[C@@H](N)C3)c2c1Cl [700,845] | >64 | >64
19 | CCc1[nH]c2nc(Sc3ccc4c(N)nc(CN5CCC(N)CC5)nc4c3)nc(N3CC[C@@H](N)C3)c2c1Cl [700,846] | >64 | >64
20 | CCc1[nH]c2nc(Sc3ccc4c(N)nc(CN5CCNCC5)nc4c3)nc(N3CC[C@@H](N)C3)c2c1Cl [700,847] | >64 | >64
21 | CCc1[nH]c2nc(Sc3cc(F)cc(F)c3C#N)nc(N3CC[C@@H](N)C3)c2c1Cl [700,848] | 64 | 64
22 | CCc1[nH]c2nc(Sc3ccc4c(N)n[nH]c4c3)nc(N3CC(N)C3)c2c1Cl [700,850] | 64 | >64
23 | CCc1[nH]c2nc(Sc3cnc4nccnc4c3)nc(N3CCC(c4cccnc4)C3)c2c1Cl (stereo not shown) [700,851] | <=0.5 | 4
24 | CCc1[nH]c2nc(Sc3cnc4cccnc4c3)nc(N3CC4CC3CC4N)c2c1Cl (stereo not shown) [700,857] | 1 | 1
25 | CCc1[nH]c2nc(Sc3cnc4nccnc4c3)nc(N3CC(CNC(=O)C4CNC4)C3)c2c1Cl [700,858] | 8 | >64
26 | CCc1[nH]c2nc(Sc3ccc4cc(C(=O)O)c(C(=O)O)nc4c3)nc(N3CC[C@@H](N)C3)c2c1Cl [700,859] | 32 | >64
27 | CCc1[nH]c2nc(Sc3ccc4c(N5CC(C6(N)CC6)C5)cc(C(=O)O)nc4c3)nc(N3CC[C@@H](N)C3)c2c1Cl [700,860] | >64 | >64

Row | SMILES | MIC, SA [1] | MIC Spn52 [2]
28 | CCc1[nH]c2nc(Sc3ccc4cc5c(=O)[nH][nH]c(=O)c5nc4c3)nc(N3CC[C@@H](N)C3)c2c1Cl [700,861] | 16 | >64
29 | CCc1[nH]c2nc(Sc3ccc4nc(C)cc(C(N)=O)c4c3)nc(C3CC[C@@H](N)C3)c2c1Cl (stereo partly shown) [700,862] | >64 | 32
30 | CCc1[nH]c2nc(Sc3cc(OC)c4c(N)nc(C)nc4c3)nc(N3CC[C@@H](N)C3)c2c1Cl [700,863] | 8 | 8
31 | CCc1[nH]c2nc(Sc3cc(F)cc4nc(C)nc(N)c34)nc(N3CC[C@@H](N)C3)c2c1Cl [700,864] | 4 | 4
32 | CCc1[nH]c2nc(Sc3cc(Cl)c4c(N)nc(C)nc4c3)nc(N3CC[C@@H](N)C3)c2c1Cl [700,865] | 1 | <=0.5
33 | CCc1[nH]c2nc(Oc3cncnc3)nc(N(C)C)c2c1Br [700,866] | 1 | 8
34 | CCc1[nH]c2nc(Sc3cnc4cccnc4c3)nc(N3CC(Cc4cncnc4)C3)c2c1Cl [700,867] | <=0.5 | 1
35 | CCc1[nH]c2nc(Sc3cnc4nccnc4c3)nc(N3C[C@H](N)C[C@@H]3CO)c2c1Cl [700,868] | >64 | >64
36 | CCc1[nH]c2nc(Sc3cnc4cccnc4c3)nc(N3CC(N)C4(CC4)C3)c2c1Cl (stereo not shown) [700,869] | 2 | 4
37 | CCc1[nH]c2nc(Sc3cnc4cccnc4c3)nc(N3C[C@H](N)C[C@@H]3CO)c2c1Cl [700,870] | 64 | 64
38 | CCc1[nH]c2nc(Sc3cnc4cccnc4c3)nc(N3CCC(c4cccnc4)C3)c2c1Cl (stereo not shown) [700,871] | <=0.5 | 2
39 | CCc1[nH]c2nc(Sc3cnc4cccnc4c3)nc(N3C[C@@H](N)[C@H](c4ccccc4)C3)c2c1Cl [700,872] | 1 | 2
40 | CCc1[nH]c2nc(Sc3cnc4cccnc4c3)nc(N3C[C@@H](N)[C@@H](C(=O)OC)C3)c2c1Cl [700,873] | 2 | 32
41 | CCc1[nH]c2nc(Oc3cccc(C#N)c3)nc(C3CC3)c2c1Cl [700,874] | 2 | 8
42 | CCc1[nH]c2nc(Cc3cccnc3)nc(Oc3cccc(C#N)c3)c2c1Cl [700,875] | 32 | >32
43 | CCc1[nH]c2nc(Sc3cnc4cccnc4c3)nc(N3CC(C(=O)N4CC(N)C4)C3)c2c1Cl [700,876] | 8 | 8
44 | CCc1[nH]c2nc(Oc3cncnc3)nc(N3CC(N)C3)c2c1Br [700,877] | 4 | 8
45 | CCc1[nH]c2nc(Oc3cncnc3)nc(Oc3cncc(C#N)c3)c2c1Br [700,878] | <=0.5 | <=0.5
46 | CCc1[nH]c2nc(Oc3cnc4ccoc4c3)nc(Oc3cnc4ccoc4c3)c2c1Br [700,883] | <=0.5 | <=0.5
47 | CCc1[nH]c2nc(Sc3cnc4nccnc4c3)nc(N3C[C@@H]4[C@H](C3)[C@@]4(N)CN)c2c1Cl [700,884] | 4 | 16
48 | CCc1[nH]c2nc(Sc3cnc4cccnc4c3)nc(N3C[C@@H]4[C@H](C3)[C@@]4(N)CN)c2c1Cl [700,885] | 2 | 4
49 | CCc1[nH]c2nc(Sc3cnc4nccnc4c3)nc(N3CC4C(C3)C4(CN)NCc3ccccc3)c2c1Cl (stereo not shown) [700,886] | >8 | 8
50 | CCc1[nH]c2nc(Sc3cnc4cccnc4c3)nc(N3CC4C(C3)C4(CN)NCc3ccccc3)c2c1Cl (stereo not shown) [700,887] | 8 | 4
51 | CCc1[nH]c2nc(Sc3cnc4cccnc4c3)nc(N3CCC(N)(C(=O)N[C@H]4CCOC4=O)C3)c2c1Cl (stereo partly shown) [700,888] | >64 | >64
52 | CCc1[nH]c2nc(Sc3cnc4cccnc4c3)nc(N3CCC(N)(C(=O)N[C@H](CO)C(=O)OC)C3)c2c1Cl (stereo partly shown) [700,889] | 32 | 32
53 | CCc1[nH]c2nc(Sc3cnc4cccnc4c3)nc(N3C[C@H](C4CCCCC4)[C@@H](N)C3)c2c1Cl [700,890] | 2 | 4
